Literature values in patent publication EP1136875A2, “Small 3D emulsions with enhanced photographic response” (EASTMAN KODAK COMPANY, priority 2000, dated 2001).

Conditions: value is for the conjugate acid of the printed base
For `C[N+](C)(C)[O-]` [(CH3)3N^+–O^-], the “pKa's in water of the conjugate acids of some useful bases” value (from here on “pKa's in water”) is given as 4.65. In the case of `CC(=O)S` [CH3–COS^-], the “pKa's in water” value is listed as 3.33. For `CC(=O)NCC(=O)O` [CH3–CO–NH–CH2–CO2^-], the “pKa's in water” value is listed as 3.67.
